ChEMBL document CHEMBL5233271, “Discovering the Mechanisms of Wikstroelide E as a Potential HIV-Latency-Reversing Agent by Transcriptome Profiling” (J Nat Prod, 2021)
Activity calls are given as the source filed them. The calls are words filed in the database; no cut-off is given here.

Tests used:
[1] = test system: Human immunodeficiency virus; test: HIV-latency reversing activity in human NH2 cells at 10 nM pretreated with PKC inhibitor, Go6983 for 1 hr followed by compound addition and measured after 12 hrs by luciferase based assay; assay type: functional, organism-based
[2] = test system: Human immunodeficiency virus; test: HIV-latency reversing activity in human J-Lat Tat-GFP Clone A2 cells at 10 nM measured after 24 hrs by fluorescence based analysis; assay type: functional, organism-based
[3] = test system: Human immunodeficiency virus; test: HIV-latency reversing activity in human NH2 cells at 10 nM measured after 24 hrs by luciferase based assay; assay type: functional, organism-based
[4] = test system: Human immunodeficiency virus; test: Reactivation of latent HIV in human J-Lat Tat-GFP Clone A2 cells measured after 24 hrs by fluorescence based analysis; assay type: functional, organism-based; settings: dose 0.5-40 nM
[5] = test system: Human immunodeficiency virus; test: Reactivation of latent HIV in human J-Lat 2D10 cells measured after 24 hrs by fluorescence based analysis; assay type: functional, organism-based; settings: dose 0.5-40 nM
[6] = test system: Human immunodeficiency virus; test: Reactivation of latent HIV in human NH1 cells measured after 24 hrs by luciferase based analysis; assay type: functional, organism-based; settings: dose 0.5-10 nM
[7] = test system: Human immunodeficiency virus; test: Reactivation of latent HIV in human NH2 cells at 10 nM by luciferase based analysis; assay type: functional, organism-based; settings: time 6-36 hrs, TDE = time-dependent effect
[8] = test system: Human immunodeficiency virus; test: Reactivation of latent HIV in human NH2 cells measured after 24 hrs by luciferase based analysis; assay type: functional, organism-based; settings: dose 0.5-10 nM
[9] = test system: Human immunodeficiency virus; test: Reactivation of latent HIV in human J-Lat Tat-GFP Clone A2 cells at 10 nM by fluorescence based analysis; assay type: functional, organism-based; settings: time 6-36 hrs, TDE = time-dependent effect
[10] = test system: Human immunodeficiency virus; test: Reactivation of latent HIV in human J-Lat 2D10 cells at 10 nM by fluorescence based analysis; assay type: functional, organism-based; settings: time 6-36 hrs, TDE = time-dependent effect
[11] = test system: Human immunodeficiency virus; test: Reactivation of latent HIV in human NH1 cells at 10 nM by luciferase based analysis; assay type: functional, organism-based; settings: time 6-36 hrs, TDE = time-dependent effect
[12] = test system: J-Lat Tat-GFP Clone A2; test: Cytotoxicity against human J-Lat Tat-GFP Clone A2 cells at 1 uM incubated for 72 hrs; assay type: toxicity, cell-based; settings: j-lat tat-gfp clone a2, 72 h
[13] = test system: NH2; test: Activation of NFkappaB signalling pathway in human NH2 cells assessed as induction of IkappaBalpha degradation measured after 1 hr by Western blot analysis; assay type: cell-based; settings: filed as activator, dose 0-80 nM
[14] = test system: J-Lat Tat-GFP Clone A2; test: Activation of NFkappaB signalling pathway in human J-Lat Tat-GFP Clone A2 cells assessed as induction of IkappaBalpha degradation measured after 1 hr by Western blot analysis; assay type: cell-based; settings: filed as activator, dose 0-80 nM
[15] = test system: NH2; test: Activation of NFkappaB signalling pathway in human NH2 cells assessed as induction of IkappaBalpha degradation at 40 nM by Western blot analysis; assay type: cell-based; settings: filed as activator, time 5-120 min, TDE = time-dependent effect
[16] = test system: J-Lat Tat-GFP Clone A2; test: Activation of NFkappaB signalling pathway in human J-Lat Tat-GFP Clone A2 cells assessed as induction of IkappaBalpha degradation at 40 nM by Western blot analysis; assay type: cell-based; settings: filed as activator, time 5-120 min, TDE = time-dependent effect
[17] = test system: NH2; test: Activation of NFkappaB signalling pathway in human NH2 cells assessed as increase in translocation of p65 from cytoplasm to nucleus at 40 nM measured after 15 to 60 mins by Western blot analysis; assay type: cell-based; settings: filed as activator, time 15-60 min
[18] = test system: J-Lat Tat-GFP Clone A2; test: Activation of NFkappaB signalling pathway in human J-Lat Tat-GFP Clone A2 cells assessed as increase in translocation of p65 from cytoplasm to nucleus at 40 nM measured after 15 to 60 mins by Western blot analysis; assay type: cell-based; settings: filed as activator, time 15-60 min
[19] = test system: Human immunodeficiency virus; test: HIV-latency reversing activity in human NH2 cells at 10 nM pretreated with PDTC for 1 hr followed by compound addition and measured after 12 hrs by luciferase based assay; assay type: functional, organism-based
[20] = test system: Human immunodeficiency virus; test: Reactivation of latent HIV in human J-Lat Tat-GFP Clone A2 cells assessed as increase in GFP expression at 0 to 20 nM measured after 24 hrs by fluorescence microscopy; assay type: functional, organism-based; settings: dose 0-20 nM
[21] = test system: Human immunodeficiency virus; test: Reactivation of latent HIV in human NH1 cells assessed as fold change measured after 24 hrs by luciferase based analysis relative to -prostratin; assay type: functional
[22] = test system: Human immunodeficiency virus; test: Reactivation of latent HIV in human NH2 cells assessed as fold change measured after 24 hrs by luciferase based analysis relative to -prostratin; assay type: functional
[23] = test system: Human immunodeficiency virus; test: Reactivation of latent HIV in human J-Lat Tat-GFP Clone A2 cells assessed as increase in GFP expression at 10 nM by live fluorescence imaging analysis; assay type: functional, organism-based; settings: time 6-36 hrs, TDE = time-dependent effect
[24] = test system: J-Lat Tat-GFP Clone A2; test: Upregulation of BZW1 gene expression in human J-Lat Tat-GFP Clone A2 cells at 10 nM measured after 6 hrs by transcriptome analysis; assay type: functional, cell-based
[25] = test system: J-Lat Tat-GFP Clone A2; test: Upregulation of CD69 gene expression in human J-Lat Tat-GFP Clone A2 cells at 10 nM measured after 6 hrs by transcriptome analysis; assay type: functional, cell-based
[26] = test system: J-Lat Tat-GFP Clone A2; test: Upregulation of CHCHD2 gene expression in human J-Lat Tat-GFP Clone A2 cells at 10 nM measured after 6 hrs by transcriptome analysis; assay type: functional, cell-based
[27] = test system: J-Lat Tat-GFP Clone A2; test: Upregulation of CLIC1 gene expression in human J-Lat Tat-GFP Clone A2 cells at 10 nM measured after 6 hrs by transcriptome analysis; assay type: functional, cell-based
[28] = test system: J-Lat Tat-GFP Clone A2; test: Upregulation of CORO1A gene expression in human J-Lat Tat-GFP Clone A2 cells at 10 nM measured after 6 hrs by transcriptome analysis; assay type: functional, cell-based
[29] = test system: J-Lat Tat-GFP Clone A2; test: Upregulation of DDRGK1 gene expression in human J-Lat Tat-GFP Clone A2 cells at 10 nM measured after 6 hrs by transcriptome analysis; assay type: functional, cell-based
[30] = test system: J-Lat Tat-GFP Clone A2; test: Upregulation of DGKA gene expression in human J-Lat Tat-GFP Clone A2 cells at 10 nM measured after 6 hrs by transcriptome analysis; assay type: functional, cell-based
[31] = test system: J-Lat Tat-GFP Clone A2; test: Upregulation of FMNL1 gene expression in human J-Lat Tat-GFP Clone A2 cells at 10 nM measured after 6 hrs by transcriptome analysis; assay type: functional, cell-based
[32] = test system: J-Lat Tat-GFP Clone A2; test: Upregulation of HSP90B1 gene expression in human J-Lat Tat-GFP Clone A2 cells at 10 nM measured after 6 hrs by transcriptome analysis; assay type: functional, cell-based
[33] = test system: J-Lat Tat-GFP Clone A2; test: Upregulation of SACM1L gene expression in human J-Lat Tat-GFP Clone A2 cells at 10 nM measured after 6 hrs by transcriptome analysis; assay type: functional, cell-based
[34] = test system: J-Lat Tat-GFP Clone A2; test: Downregulation of ADI1 gene expression in human J-Lat Tat-GFP Clone A2 cells at 10 nM measured after 6 hrs by transcriptome analysis; assay type: functional, cell-based
[35] = test system: J-Lat Tat-GFP Clone A2; test: Downregulation of ARID4B gene expression in human J-Lat Tat-GFP Clone A2 cells at 10 nM measured after 6 hrs by transcriptome analysis; assay type: functional, cell-based
[36] = test system: J-Lat Tat-GFP Clone A2; test: Downregulation of CCNB1 gene expression in human J-Lat Tat-GFP Clone A2 cells at 10 nM measured after 6 hrs by transcriptome analysis; assay type: functional, cell-based
[37] = test system: J-Lat Tat-GFP Clone A2; test: Downregulation of CHEK1 gene expression in human J-Lat Tat-GFP Clone A2 cells at 10 nM measured after 6 hrs by transcriptome analysis; assay type: functional, cell-based
[38] = test system: J-Lat Tat-GFP Clone A2; test: Downregulation of CNBP gene expression in human J-Lat Tat-GFP Clone A2 cells at 10 nM measured after 6 hrs by transcriptome analysis; assay type: functional, cell-based
[39] = test system: J-Lat Tat-GFP Clone A2; test: Downregulation of FLNB gene expression in human J-Lat Tat-GFP Clone A2 cells at 10 nM measured after 6 hrs by transcriptome analysis; assay type: functional, cell-based
[40] = test system: J-Lat Tat-GFP Clone A2; test: Downregulation of IKBKG gene expression in human J-Lat Tat-GFP Clone A2 cells at 10 nM measured after 6 hrs by transcriptome analysis; assay type: functional, cell-based
[41] = test system: J-Lat Tat-GFP Clone A2; test: Downregulation of INTS10 gene expression in human J-Lat Tat-GFP Clone A2 cells at 10 nM measured after 6 hrs by transcriptome analysis; assay type: functional, cell-based
[42] = test system: J-Lat Tat-GFP Clone A2; test: Downregulation of LRSAM1 gene expression in human J-Lat Tat-GFP Clone A2 cells at 10 nM measured after 6 hrs by transcriptome analysis; assay type: functional, cell-based
[43] = test system: J-Lat Tat-GFP Clone A2; test: Downregulation of PRKCQ gene expression in human J-Lat Tat-GFP Clone A2 cells at 10 nM measured after 6 hrs by transcriptome analysis; assay type: functional, cell-based
[44] = test system: NH2; test: Activation of NFkappaB signalling pathway in human NH2 cells assessed as increase in IkappaBalpha phosphorylation measured after 1 hr by Western blot analysis; assay type: cell-based; settings: filed as activator, dose 0-80 nM
[45] = test system: J-Lat Tat-GFP Clone A2; test: Activation of NFkappaB signalling pathway in human J-Lat Tat-GFP Clone A2 cells assessed as increase in IkappaBalpha phosphorylation measured after 1 hr by Western blot analysis; assay type: cell-based; settings: filed as activator, dose 0-80 nM
[46] = test system: NH2; test: Activation of NFkappaB signalling pathway in human NH2 cells assessed as increase in IkappaBalpha phosphorylation at 40 nM by Western blot analysis; assay type: cell-based; settings: filed as activator, time 5-120 min, TDE = time-dependent effect
[47] = test system: J-Lat Tat-GFP Clone A2; test: Activation of NFkappaB signalling pathway in human J-Lat Tat-GFP Clone A2 cells assessed as increase in IkappaBalpha phosphorylation at 40 nM by Western blot analysis; assay type: cell-based; settings: filed as activator, time 5-120 min, TDE = time-dependent effect
[48] = test system: Human immunodeficiency virus; test: HIV-latency reversing activity in human NH2 cells at 10 nM pretreated with BAY11-7082 for 1 hr followed by compound addition and measured after 12 hrs by luciferase based assay; assay type: functional, organism-based
[49] = test system: NH2; test: Activation of NFkappaB signalling pathway in human NH2 cells assessed as increase in translocation of p65 from cytoplasm to nucleus at 40 nM pretreated with PKC inhibitor, Go6983 for 1 hr followed by compound addition and measured after 12 hrs by Western blot analysis; assay type: cell-based
[50] = test system: Human immunodeficiency virus; test: HIV-latency reversing activity in human NH2 cells at 10 nM pretreated with JAK inhibitor, -decernotinib for 1 hr followed by compound addition and measured after 12 hrs by luciferase based assay; assay type: functional, organism-based
[51] = Cytotoxicity against human J-Lat 2D10 cells at 1 uM incubated for 72 hrs; assay type: toxicity, cell-based
[52] = Cytotoxicity against human NH1 cells at 1 uM incubated for 72 hrs; assay type: toxicity, cell-based; settings: nh1, 72 h
[53] = Cytotoxicity against human NH2 cells at 1 uM incubated for 72 hrs; assay type: toxicity, cell-based; settings: nh2, 72 h

C=C(C)[C@]12C[C@@H](C)[C@@]34O[C@]5(CCCCCCC[C@H](C)[C@H]6[C@H](C)C(=O)[C@@](O)([C@H](O)[C@@]7(CO)O[C@H]7[C@H]3[C@H]1O5)[C@@H]64)O2
Activity [1]: inactive
Activity [2]: Active
Activity [3]: Active
Activity [4]: Dose-Dependent Effect
Activity [5]: Dose-Dependent Effect
Activity [6]: Dose-Dependent Effect
Activity [7]: Tde
Activity [8]: Dose-Dependent Effect
Activity [9]: Tde
Activity [10]: Tde
Activity [11]: Tde
Activity [12]: Non-Toxic
Activity [13]: Dose-Dependent Effect
Activity [14]: Dose-Dependent Effect
Activity [15]: Tde
Activity [16]: Tde
Activity [17]: Active
Activity [18]: Active
Activity [19]: inactive
Activity [20]: Active
fold change (FC) [21]: 2500
fold change (FC) [22]: 2500
Activity [23]: Tde
Activity [24]: Active
Activity [25]: Active
Activity [26]: Active
Activity [27]: Active
Activity [28]: Active
Activity [29]: Active
Activity [30]: Active
Activity [31]: Active
Activity [32]: Active
Activity [33]: Active
Activity [34]: Active
Activity [35]: Active
Activity [36]: Active
Activity [37]: Active
Activity [38]: Active
Activity [39]: Active
Activity [40]: Active
Activity [41]: Active
Activity [42]: Active
Activity [43]: Active
Activity [44]: Dose-Dependent Effect
Activity [45]: Dose-Dependent Effect
Activity [46]: Tde
Activity [47]: Tde
Activity [48]: inactive
Activity [49]: inactive
Activity [50]: inactive
Activity [51]: Non-Toxic
Activity [52]: Non-Toxic
Activity [53]: Non-Toxic
